Patent US12697343B2, “Intravenous istaroxime for the treatment of acute heart failure” (Seismic Pharmaceuticals Operations LLC, priority 2021, dated 2026)
Structures can show the parent of a compound that is named as a salt.

Tested on: patients hospitalized for acute heart failure (AHF)
Assay: Echocardiographic parameters (tissue Doppler echocardiography), phase II trial of 24 h istaroxime infusion
Format: in vivo, human
Set-up: E/e′ change from baseline to 24 h: dose or concentration left out as unconfirmed
Settings: for A wave mean change from baseline / CI mean change from baseline / E wave mean change from baseline / E/A ratio mean change from baseline / E/e′ ratio mean change from baseline / EDV Index mean change from baseline / EDV mean change from baseline / ESV Index mean change from baseline / ESV mean change from baseline / IVC diameter mean change from baseline / LAA mean change from baseline / LAV mean change from baseline / LAVI mean change from baseline / LVEF mean change from baseline / PASP mean change from baseline / SVI mean change from baseline / S′ mean change from baseline / TAPSE mean change from baseline / e′ mean change from baseline: 1.0 μg/Kg/min; for E/e′ change from baseline to 24 h (primary endpoint): 1.0 μg/kg/min (cohort 2), mITT, hydrochloride
Description: The measurement of one or more cardiac parameters disclosed herein can be measured by Echocardiography which may be performed on subjects according to international standards (see, for example, Lang R M et a I. J Am Soc Echocardiogr 2005; 18(12): 1440-63; Nagueh S F et al. Eur J Echocardiogr 2009; 10(2): 165-93; Evangelista A et a I. Eur J Echocardiogr 2008; 9(4):438-48).
In some embodiments, cardiac parameters can be measured as follows: • 1. Cardiac dimension measures: • a. Left ventricle end diastolic diameter (EDD): measured with M-mode echocardiography at the level of mitral valve (MV) leaflets from parasternal long axis view (PLAX) (normal range [N R]: 42-59 mm males and 39-53 mm females); • b. Left ventricle end systolic diameter (ESD): measured with M-mode echocardiography at the level of mitral valve (MV) leaflets from PLAX (N R: 25-35 mm): • c. Left ventricle end diastolic volume (EDV): measured with M-mode echocardiography at the level of mitral valve (MV) leaflets from PLAX (N R: 67-155 mL males and 56-104 mL females); • d. Left ventricle end systolic volume (ESV): measured with M-mode echocardiography at the level of mitral valve (MV) leaflets from PLAX (N R: 22-58 mL males and 19-49 mL females); • e. Left atrium diameter (LAD): measured at end-ventricular systole with M-mode echocardiography from PLAX. (N R: 30-40 mm males and 27-38 mm females) • f. Left atrium area (LAA): measured from apical four chamber view (NR: £20 cm2); and • g. Left atrium volume (LAV): derived from area-length measured from apical four chamber view (N R: 18-58 mL males and 22-52 mL females). • 2. Left ventricle diastolic function parameters: • a. E wave: measured from mitral valve pulsed wave Doppler, is the peak velocity of early filling. […] A wave: measured from mitral valve pulsed wave Doppler is the peak velocity of late atrial filling. Not evaluable in subjects with AF: • c. E wave deceleration time (EDT): measured from mitral valve pulsed wave Doppler represent the slope of the descending part of E wave; • d. E/A ratio: determines the type of diastolic filling pattern (normal E/A=1-2 and EDT=150-200 ms, abnormal relaxation E/A<1 and EDT>240 ms, pseudonormal E/A=0.8-1.5: restrictive E/A^32 and EDT <160 ms). Not evaluable in subjects with AF; • e. Ea: measured with tissue Doppler method at the lateral and septal side of the mitral annulus from apical four chamber view is the early diastolic velocity. The value has been calculated as the average between Ea lateral and Ea septal. (NR310 cm/s) (see Nagueh S F et al. Eur J Echocardiogr. 2009:10(2):165-93); • f. Aa: measured with tissue Doppler method at the lateral and septal side of the mitral annulus from apical four chamber view is the late atrial diastolic velocity. The value has been calculated as the average between Aa lateral and Aa septal. Not evaluable in subjects with AF; and • g. E/Ea ratio: this is a derived measure from E and Ea value. This is highly correlated with left ventricle filling pressure and with prognosis in subjects with HF. (NR: <13) (see Nagueh S F et al. supra). • 3. Left ventricle systolic function parameters: • a. Left ventricle ejection fraction (LVEF): measured with Simpson biplane method according to international recommendations from apical four chamber view and apical two chamber view. (NR ^355%) (see Lang R M et al. J Am Soc Echocardiogr. 2005:18(12): 1440-63); and • b. Sa: measured with tissue Doppler method at the lateral and septal side of the mitral annulus from apical four chamber view. The value has been calculated as the average between Sa lateral and Sa septal. […] Overall cardiac contraction parameters: • a. Stroke volume (SV): is a derived measure obtained with the application of Bernoulli's formula using the dimension of left ventricle outflow tract (LVOT) as diameter and LVOT time velocity integral as velocity. (NR>60 mL/beat); • b. Cardiac output (CO): is derived by the multiplication of SV× heart rate (HR) (NR: >4 L/min); • c. […]

[1] = 1.0 μg/kg/min, mean ± standard deviation

C[C@]12CCC(=NOCCN)C[C@@H]1C(=O)C[C@@H]1[C@@H]2CC[C@]2(C)C(=O)CC[C@@H]12 [Istaroxime, (E,Z)-3-((2-aminoethoxy)imino)androstane-6,17-dione hydrochloride]
A wave mean change from baseline (6 hours): 5.88 cm/s | CI mean change from baseline (6 hours): 0.15 l/min/m^2 | E wave mean change from baseline (6 hours): -10.19 cm/s | E/A ratio mean change from baseline (6 hours): −0.35 | E/e′ ratio mean change from baseline (6 hours): −2.05 | EDV Index mean change from baseline (6 hours): 0.64 ml/m^2 | EDV mean change from baseline (6 hours): 1.35 mL | ESV Index mean change from baseline (6 hours): −2.42 ml/m^2 | ESV mean change from baseline (6 hours): -4.62 mL | IVC diameter mean change from baseline (6 hours): −1.24 mm | LAA mean change from baseline (6 hours): −1.03 cm^2 | LAV mean change from baseline (6 hours): -4.94 mL | LAVI mean change from baseline (6 hours): −2.86 mL/m^2 | LVEF mean change from baseline (6 hours): 2.35% | PASP mean change from baseline (6 hours): −2.60 mmHg | SVI mean change from baseline (6 hours): 4.32 ml/beat/m^2 | S′ mean change from baseline (6 hours): 1.00 cm/s | TAPSE mean change from baseline (6 hours): 1.56 mm | e′ mean change from baseline (6 hours): -0.03 cm/s | A wave mean change from baseline (24 hours): 9.00 cm/s | CI mean change from baseline (24 hours): 0.15 l/min/m^2 | E wave mean change from baseline (24 hours): -14.06 cm/s | E/A ratio mean change from baseline (24 hours): −0.65 | E/e′ ratio mean change from baseline (24 hours): −3.16 | EDV Index mean change from baseline (24 hours): −2.08 ml/m^2 | EDV mean change from baseline (24 hours): -3.67 mL | ESV Index mean change from baseline (24 hours): −6.23 ml/m^2 | ESV mean change from baseline (24 hours): -11.39 mL | IVC diameter mean change from baseline (24 hours): −2.23 mm | LAA mean change from baseline (24 hours): −2.21 cm^2 | LAV mean change from baseline (24 hours): -12.94 mL | LAVI mean change from baseline (24 hours): −7.32 mL/m^2 | LVEF mean change from baseline (24 hours): 3.82% | PASP mean change from baseline (24 hours): −4.76 mmHg | SVI mean change from baseline (24 hours): 5.49 ml/beat/m^2 | S′ mean change from baseline (24 hours): 0.81 cm/s | TAPSE mean change from baseline (24 hours): 1.16 mm | e′ mean change from baseline (24 hours): 0.10 cm/s | A wave mean change from baseline (48 hours): 5.30 cm/s | CI mean change from baseline (48 hours): 0.20 l/min/m^2 | E wave mean change from baseline (48 hours): -11.53 cm/s | E/A ratio mean change from baseline (48 hours): −0.36 | E/e′ ratio mean change from baseline (48 hours): −2.21 | EDV Index mean change from baseline (48 hours): −1.86 ml/m^2 | EDV mean change from baseline (48 hours): -3.18 mL | ESV Index mean change from baseline (48 hours): −4.46 ml/m^2 | ESV mean change from baseline (48 hours): -8.09 mL | IVC diameter mean change from baseline (48 hours): −2.19 mm | LAA mean change from baseline (48 hours): −0.94 cm^2 | LAV mean change from baseline (48 hours): -6.67 mL | LAVI mean change from baseline (48 hours): −3.80 mL/m^2 | LVEF mean change from baseline (48 hours): 2.06% | PASP mean change from baseline (48 hours): −3.00 mmHg | SVI mean change from baseline (48 hours): 2.91 ml/beat/m^2 | S′ mean change from baseline (48 hours): 0.26 cm/s | TAPSE mean change from baseline (48 hours): 0.31 mm | e′ mean change from baseline (48 hours): 0.19 cm/s | E/e′ change from baseline to 24 h (primary endpoint) (mean ± standard deviation): −3.16 ± 2.59 | E/e′ change from baseline to 24 h (primary endpoint) (mean ± standard deviation, listed as istaroxime): −3.16±2.59 | E/A ratio change at 24 h [1]: −0.65 ± 1.10 | LV ejection fraction change at 24 h [1]: 3.82 ± 4.14% | LV end-diastolic volume index change at 24 h [1]: −2.08 ± 9.05 mL/m^2 | LV end-systolic volume index change at 24 h [1]: −6.23 ± 9.23 mL/m^2 | Left atrial area change at 24 h [1]: −2.21 ± 3.18 cm^2 | Left atrial volume index change at 24 h [1]: −7.32 ± 10.0 mL/m^2 | Stroke volume index change at 24 h [1]: 5.49 ± 4.98 mL/beat/m^2 | S′ change at 24 h [1]: 0.81 ± 1.01 cm/s | E/e′ change from baseline to 24 h (per-protocol population): −3.19±2.63
